Test results from ChEMBL document CHEMBL5303573, “Mapping human microbiome drug metabolism by gut bacteria and their genes” (Nature, 2019).

Columns and labels:
[1] = The drug is tested on Salmonella typhimurium strain: LT2 for biotransformation. The drug concentrations were measured before and after a 12-h incubation by liquid-chromatography-coupled mass spectrometry (LC–MS); details: salmonella enterica subsp. enterica, 2 µM
Diguanylate cyclase = biological target: T1, Diguanylate cyclase (Collinsella aerofaciens, UniProt A4EB91); assay: (§1) The drug is tested on Collinsella aerofaciens strain: ATCC25986 for biotransformation. The drug concentrations were measured before and after a 12-h incubation by liquid-chromatography-coupled mass spectrometry (LC–MS); type: ADME; parameters: dose 2 uM; details: 2 µM
T1 sequence (A4EB91 whole entry): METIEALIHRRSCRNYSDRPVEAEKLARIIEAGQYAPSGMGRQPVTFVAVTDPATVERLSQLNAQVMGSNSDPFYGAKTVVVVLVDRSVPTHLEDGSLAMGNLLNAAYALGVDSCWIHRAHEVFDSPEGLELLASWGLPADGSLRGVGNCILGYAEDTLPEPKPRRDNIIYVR

Flavodoxin = biological target: T2, Flavodoxin (Collinsella aerofaciens, UniProt A4ED08); assay: as §1; type: ADME; parameters: dose 2 uM; details: 2 µM
T2 sequence (A4ED08 whole entry): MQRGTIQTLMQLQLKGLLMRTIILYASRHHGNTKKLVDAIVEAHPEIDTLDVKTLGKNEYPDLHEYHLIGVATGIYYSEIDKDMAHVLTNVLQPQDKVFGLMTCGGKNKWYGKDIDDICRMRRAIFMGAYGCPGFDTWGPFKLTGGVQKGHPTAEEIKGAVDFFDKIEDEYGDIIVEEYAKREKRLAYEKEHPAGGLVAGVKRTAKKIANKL

GDSL-like protein [2] = biological target: T3, GDSL-like protein (Collinsella aerofaciens, UniProt A4E7D0); assay: as §1; type: ADME; parameters: dose 2 uM; details: 2 µM
T3 sequence (A4E7D0 whole entry): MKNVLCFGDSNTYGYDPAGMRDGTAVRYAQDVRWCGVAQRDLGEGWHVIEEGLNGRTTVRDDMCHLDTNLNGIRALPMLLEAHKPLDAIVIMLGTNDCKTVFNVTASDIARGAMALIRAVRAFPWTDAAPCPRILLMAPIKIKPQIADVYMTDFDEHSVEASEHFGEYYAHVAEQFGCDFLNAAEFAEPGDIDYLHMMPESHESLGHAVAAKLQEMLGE

GDSL-like protein [3] = biological target: T4, GDSL-like protein (Collinsella aerofaciens, UniProt A4E8S4); assay: as §1; type: ADME; parameters: dose 2 uM; details: 2 µM
T4 sequence (A4E8S4 whole entry): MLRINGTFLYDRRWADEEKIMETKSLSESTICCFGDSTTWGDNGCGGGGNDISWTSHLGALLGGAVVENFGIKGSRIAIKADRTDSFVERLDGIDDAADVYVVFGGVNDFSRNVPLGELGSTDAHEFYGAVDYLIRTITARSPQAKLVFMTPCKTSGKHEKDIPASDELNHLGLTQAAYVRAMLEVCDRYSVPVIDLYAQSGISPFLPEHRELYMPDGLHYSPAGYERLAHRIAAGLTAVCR

[4] = biological target: T5, Pyridine nucleotide-disulfide oxidoreductase (Collinsella aerofaciens, UniProt A4EBM5); assay: as §1; type: ADME; parameters: dose 2 uM; details: 2 µM
T5 sequence (A4EBM5 whole entry): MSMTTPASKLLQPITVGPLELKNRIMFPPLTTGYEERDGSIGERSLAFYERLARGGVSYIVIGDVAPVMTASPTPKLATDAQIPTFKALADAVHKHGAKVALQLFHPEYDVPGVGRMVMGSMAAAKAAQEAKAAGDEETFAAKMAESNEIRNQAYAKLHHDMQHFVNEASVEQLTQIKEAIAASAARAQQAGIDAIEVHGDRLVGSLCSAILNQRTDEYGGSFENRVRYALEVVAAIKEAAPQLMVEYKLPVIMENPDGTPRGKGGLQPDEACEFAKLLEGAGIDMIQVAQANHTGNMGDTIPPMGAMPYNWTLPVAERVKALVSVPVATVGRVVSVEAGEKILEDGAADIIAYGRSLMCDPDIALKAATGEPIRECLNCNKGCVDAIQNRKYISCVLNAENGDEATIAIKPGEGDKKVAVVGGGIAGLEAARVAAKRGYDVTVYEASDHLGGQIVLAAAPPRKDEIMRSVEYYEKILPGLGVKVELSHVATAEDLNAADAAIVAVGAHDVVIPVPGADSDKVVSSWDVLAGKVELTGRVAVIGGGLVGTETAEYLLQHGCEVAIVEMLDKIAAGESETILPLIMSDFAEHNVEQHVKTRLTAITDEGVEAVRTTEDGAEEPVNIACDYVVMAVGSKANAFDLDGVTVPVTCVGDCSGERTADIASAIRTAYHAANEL

[5] = (§2) The drug is tested on the gut metagenome community of MV05 with ENA study accession number: PRJEB31790 and ENA sample accession number: SAMEA5537486 for biotransformation. The drug concentrations were measured over 9 timepoints collected between 0 and 24 hours of incubation by liquid-chromatography-coupled mass spectrometry (LC–MS); type: ADME; parameters: dose 2 uM, timepoint 0, 1, 2, 4, 6, 8, 12, 18, 24 hours; details: 2 µM
[6] = as §2, with “MV06” for “MV05”, “SAMEA5537487” for “SAMEA5537486”; type: ADME; parameters: dose 2 uM, timepoint 0, 1, 2, 4, 6, 8, 12, 18, 24 hours; details: 2 µM
[7] = as §2, with “MV07” for “MV05”, “SAMEA5537488” for “SAMEA5537486”; type: ADME; parameters: dose 2 uM, timepoint 0, 1, 2, 4, 6, 8, 12, 18, 24 hours; details: 2 µM
[8] = as §2, with “MV09” for “MV05”, “SAMEA5537490” for “SAMEA5537486”; type: ADME; parameters: dose 2 uM, timepoint 0, 1, 2, 4, 6, 8, 12, 18, 24 hours; details: 2 µM
[9] = as §2, with “MV10” for “MV05”, “SAMEA5537491” for “SAMEA5537486”; type: ADME; parameters: dose 2 uM, timepoint 0, 1, 2, 4, 6, 8, 12, 18, 24 hours; details: 2 µM
[10] = as §2, with “MV12” for “MV05”, “SAMEA5537493” for “SAMEA5537486”; type: ADME; parameters: dose 2 uM, timepoint 0, 1, 2, 4, 6, 8, 12, 18, 24 hours; details: 2 µM
[11] = as §2, with “MV13” for “MV05”, “SAMEA5537494” for “SAMEA5537486”; type: ADME; parameters: dose 2 uM, timepoint 0, 1, 2, 4, 6, 8, 12, 18, 24 hours; details: 2 µM
[12] = as §2, with “MV15” for “MV05”, “SAMEA5537496” for “SAMEA5537486”; type: ADME; parameters: dose 2 uM, timepoint 0, 1, 2, 4, 6, 8, 12, 18, 24 hours; details: 2 µM
[13] = as §2, with “MV21” for “MV05”, “SAMEA5537502” for “SAMEA5537486”; type: ADME; parameters: dose 2 uM, timepoint 0, 1, 2, 4, 6, 8, 12, 18, 24 hours; details: 2 µM
[14] = as §2, with “MV26” for “MV05”, “SAMEA5537507” for “SAMEA5537486”; type: ADME; parameters: dose 2 uM, timepoint 0, 1, 2, 4, 6, 8, 12, 18, 24 hours; details: 2 µM
[15] = as §2, with “MV28” for “MV05”, “SAMEA5537509” for “SAMEA5537486”; type: ADME; parameters: dose 2 uM, timepoint 0, 1, 2, 4, 6, 8, 12, 18, 24 hours; details: 2 µM

SMILES	Bacterial Biotransformation [1]	Bacterial Biotransformation (Diguanylate cyclase)	Bacterial Biotransformation (Flavodoxin)	Bacterial Biotransformation (GDSL-like protein [2])	Bacterial Biotransformation (GDSL-like protein [3])	Bacterial Biotransformation [4]	Bacterial Biotransformation [5]	Bacterial Biotransformation [6]	Bacterial Biotransformation [7]	Bacterial Biotransformation [8]	Bacterial Biotransformation [9]	Bacterial Biotransformation [10]	Bacterial Biotransformation [11]	Bacterial Biotransformation [12]	Bacterial Biotransformation [13]	Bacterial Biotransformation [14]	Bacterial Biotransformation [15]
COc1ccc2cc([C@H](C)C(=O)O)ccc2c1 [NAPROXEN]	Compound NOT metabolized	–	–	–	–	–	–	–	–	–	–	–	–	–	–	–	–
CC(CCc1ccccc1)NCC(O)c1ccc(O)c(C(N)=O)c1 (stereo not drawn) [LABETALOL]	Compound NOT metabolized	–	–	–	–	–	–	–	–	–	–	–	–	–	–	–	–
CN1[C@@H]2CC[C@H]1C[C@@H](OC(=O)C(CO)c1ccccc1)C2 (stereo partly drawn) [ATROPINE]	Compound NOT metabolized	–	–	–	–	–	–	–	–	–	–	–	–	–	–	–	–
C#C[C@]1(OC(C)=O)CC[C@H]2[C@@H]3CCC4=CC(=O)CC[C@@H]4[C@H]3CC[C@@]21C [NORETHINDRONE ACETATE]	–	Compound NOT metabolized	Compound NOT metabolized	Compound NOT metabolized	Compound NOT metabolized	Compound NOT metabolized	Compound metabolized	Compound metabolized	Compound metabolized	Compound metabolized	Compound metabolized	Compound metabolized	Compound metabolized	Compound metabolized	Compound metabolized	Compound metabolized	Compound metabolized
CC(=O)OCC(CCn1cnc2cnc(N)nc21)COC(C)=O [FAMCICLOVIR]	–	Compound NOT metabolized	Compound NOT metabolized	Compound NOT metabolized	Compound metabolized	Compound NOT metabolized	Compound metabolized	Compound metabolized	Compound metabolized	Compound metabolized	Compound metabolized	Compound metabolized	Compound metabolized	Compound metabolized	Compound metabolized	Compound metabolized	Compound metabolized
C#C[C@]1(O)CC[C@H]2[C@@H]3CCC4=CC(=O)CC[C@@H]4[C@H]3CC[C@@]21CC [LEVONORGESTREL]	–	Compound NOT metabolized	Compound NOT metabolized	Compound NOT metabolized	Compound NOT metabolized	Compound NOT metabolized	–	–	–	–	–	–	–	–	–	–	–
COC(=O)Nc1nc2ccc(C(=O)c3ccccc3)cc2[nH]1 [MEBENDAZOLE]	Compound NOT metabolized	–	–	–	–	–	–	–	–	–	–	–	–	–	–	–	–
C#C[C@]1(OC(C)=O)CC[C@H]2[C@@H]3CCC4=C/C(=N/O)CC[C@@H]4[C@H]3CC[C@@]21CC [NORGESTIMATE]	Compound NOT metabolized	–	–	–	–	–	–	–	–	–	–	–	–	–	–	–	–
COc1ccc([C@@H]2Sc3ccccc3N(CCN(C)C)C(=O)[C@@H]2OC(C)=O)cc1 [DILTIAZEM]	–	Compound NOT metabolized	Compound NOT metabolized	Compound NOT metabolized	Compound NOT metabolized	Compound NOT metabolized	Compound NOT metabolized	Compound NOT metabolized	Compound NOT metabolized	Compound NOT metabolized	Compound NOT metabolized	Compound NOT metabolized	Compound NOT metabolized	Compound NOT metabolized	Compound NOT metabolized	Compound NOT metabolized	Compound NOT metabolized
CC(=O)OCC(=O)[C@@]1(OC(C)=O)[C@@H](C)C[C@H]2[C@@H]3C[C@H](F)C4=CC(=O)C=C[C@]4(C)[C@@]3(F)[C@@H](O)C[C@@]21C [DIFLORASONE DIACETATE]	–	Compound NOT metabolized	Compound NOT metabolized	Compound NOT metabolized	Compound metabolized	Compound NOT metabolized	–	–	–	–	–	–	–	–	–	–	–
